Test results as given in US20230125249A1 (FIRMENICH SA, priority 2017, published 2023).
Read-outs that look alike come from different tables or passages of the source.

Legend:
[1] = molecular target: T1, OR5AN1 olfactory receptor (Homo sapiens, UniProt Q8NGI8); assay: MUSCENONE®/musk dose-response on OR5AN1 in presence and absence of putative modulator (EC50 shift, span); format: cell-based; conditions: FIG. 6; MUSCENONE® dose response in the presence of 250 μM compound
T1 construct: expressed in transfected cells
T1 sequence (Q8NGI8 1-311): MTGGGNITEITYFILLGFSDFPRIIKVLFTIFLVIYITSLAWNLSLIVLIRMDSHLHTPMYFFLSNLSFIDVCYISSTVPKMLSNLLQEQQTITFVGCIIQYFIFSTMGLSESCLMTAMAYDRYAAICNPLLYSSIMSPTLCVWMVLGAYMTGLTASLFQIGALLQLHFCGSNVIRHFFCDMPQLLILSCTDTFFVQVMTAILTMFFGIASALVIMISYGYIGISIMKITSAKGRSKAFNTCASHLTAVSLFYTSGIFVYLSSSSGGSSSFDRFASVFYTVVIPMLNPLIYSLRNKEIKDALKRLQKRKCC

OR5AN1 allele 4 = assay: Cell based assay of hypofunctional OR5AN1 allele 4 with and without enhancer; parameters: species or system human
[2] = molecular target: T1, OR5AN1 olfactory receptor; assay: Response of the OR5AN1 olfactory receptor to musk compounds (HTRF); format: cell-based
[3] = Odor detection threshold (ODT) forced-choice triangle test with background odor; format: in vivo, human
Method: Sensitivity of human individuals to MUSCENONE® was evaluated by performing an odor detection threshold (ODT) test. The ODT test consisted of identifying the concentration for which 50% of the panelists are able to determine which of three containers contains the target compound Muscenone® in a forced-choice triangle tests. Two tests were performed to calculate the ODT in mixtures containing Muscenone® plus a perceivable background odor of chemically similar molecules a) the enhancer tridecylenic aldehyde and b) the non-enhancing volatile compound, nonanal.
27 panelists were given a series of triangle tests with increasing concentration of MUSCENONE® in the presence of nonanal at a concentration of 0.1%. Within each triangle test, the three samples contained nonanal at 0.1% and one sample also contained MUSCENONE®. In each triangle test, the panelists were asked to identify the one sample that was different from the other two samples. The ODT was calculated by fitting a non-linear regression model onto the data and calculating the MUSCENONE® concentration at which the proportion of correct responses was equal to ⅔ (the midpoint between chance rate ⅓ and all correct answers 1). […]

OR5AN1 allele 3 = assay: Cell based assay of hypofunctional OR5AN1 allele 3 with and without enhancer; parameters: species or system human
[4] = molecular target: T1, OR5AN1 olfactory receptor; assay: Allosteric EC50 shift analysis: MUSCENONE® dose response with serial concentrations of enhancer; format: cell-based; conditions: same method as for TDA
Method: The level of enhancement of the OR5AN1 olfactory receptor activation was evaluated at distinct concentrations of the enhancer. […] The curves were obtained by applying the simplified Allosteric EC50 shift effect equation (available in Prism5, v. 5.02) derived from the ternary complex interaction model.

[5] = molecular target: T1, OR5AN1 olfactory receptor; assay: Single point binary mixture screen (MUSCENONE® + test compound) on a cell line expressing OR5AN1; format: cell-based; conditions: MUSCENONE® 10 μM + test compound 500 μM, compared to MUSCENONE® alone
Method: 481 binary mixtures were created by mixing a MUSCENONE® stock solution with a stock solution of each test compound to a final concentration 10 and 500 μM, respectively. Stock solutions were made of compounds dissolved in pure DMSO. Each mixture was presented to a cell line expressing the OR5AN1 olfactory receptor. The final concentration of DMSO in each binary mixture was 0.17%, and had no visible effect on the cells
The resulting activation was then measured and compared to MUSCENONE® alone (defining the baseline of the enhancement assay). The quality of the HTS process was determined and the window variability and signal reliability were assessed by calculating the Z′ value of each plate. Twenty hits were obtained, five of which were macrocyclic ketone and nitromusk OR5AN1 olfactory receptor agonists (hit n° 1, 2, 3, 5 and 9). These OR5AN1 olfactory receptor agonists further confirmed that the dynamic range of the assay window was sufficient (as the responses recorded were well above baseline) and thus likely sensitive enough to detect even low levels of putative enhancement.

[6] = molecular target: T1, OR5AN1 olfactory receptor; assay: MUSCENONE®/musk dose-response on OR5AN1 in presence and absence of putative modulator (EC50 shift, span); format: cell-based; conditions: MUSCENONE® dose response in the presence of 250 μM compound
Method: Next, two parallel dose-response experiments to confirm the true enhancement properties of the potential candidates were performed. First, a dose-response of each individual candidate was performed to determine if it was an agonist by itself.
The resulting enhancement was quantified by means of EC50-fold shift (potency increase) and the efficacy span ratio (efficacy increase).
The EC50-fold shift was obtained by dividing the EC50 of MUSCENONE® +compound by the reference EC50 MUSCENONE® alone. The span ratio was obtained by dividing the span of MUSCENONE®+compound by the reference span of MUSCENONE® alone.

Compound: COc1ccccc1/C=C/C=O [(E)-3-(2-methoxyphenyl)prop-2-enal]
- Inhibition of the activity of the OR5AN1 olfactory receptor [1]: inhibit the activity

Compound: CC1CC=CCCCCCCCCCC(=O)C1 (stereo not drawn) [MUSCENONE®]
- Activity (span) (OR5AN1 allele 4; allele 4, absence of enhancer): 2328 relative fluorescent HTRF units
- EC50 (OR5AN1 allele 4; allele 4, absence of enhancer): 10.1 µM
- EC50 (OR5AN1 allele 4; allele 4, in the presence of 250 μM tridecylenic aldehyde): 1.6 µM
- Activity (span) (OR5AN1 allele 4; allele 4, in the presence of tridecylenic aldehyde): 5026 relative fluorescent HTRF units
- Activation of the OR5AN1 olfactory receptor ([2]; FIG. 1a): specifically activated
- Span (HTRF ratio) ([2]; efficacy, maximum span): 3629 HTRF ratio
- ODT (odor detection threshold) ([3]; in the presence of nonanal at 0.1%, 27 panelists): 0.93%
- ODT (odor detection threshold) ([3]; in the presence of tridecylenic aldehyde at 0.1%, 28 panelists): 0.09%
- Activity (span) (OR5AN1 allele 3; allele 3, absence of enhancer): 2311 relative fluorescent HTRF units
- EC50 (OR5AN1 allele 3; allele 3, absence of enhancer): 9 µM
- EC50 (OR5AN1 allele 3; allele 3, in the presence of 250 μM tridecylenic aldehyde): 1.5 µM
- Activity (span) (OR5AN1 allele 3; allele 3, in the presence of tridecylenic aldehyde): 4663 relative fluorescent HTRF units

Compound: CCCCCCCC=CC=O [Compound 2-decenal, 2-decenal]
- Allosteric modulation properties [4]: allosteric modulation properties similar to TDA

Compound: CCCCCCCCC/C=C/C(=O)O [(E)-2-dodecenoic acid]
- Inhibition of the activity of the OR5AN1 olfactory receptor [1]: inhibit the activity

Compound: CCCCCCCC/C=C/C(=O)O [(E)-2-undecenoic acid]
- Inhibition of the activity of the OR5AN1 olfactory receptor [1]: inhibit the activity

Compound: CCCCCCCCCC/C=C/CO [(E)-2-tridecenol]
- Inhibition of the activity of the OR5AN1 olfactory receptor [1]: inhibit the activity

Compound: CCC/C=C/C=O [(E)-2-hexenal]
- Inhibition of the activity of the OR5AN1 olfactory receptor [1]: inhibit the activity

Compound: CC(=O)c1ccccc1N [Compound 20]
- Hit Type [5]: Enhancement

Compound: CCCCCCCC=O [octanal]
- Inhibition of the activity of the OR5AN1 olfactory receptor [1]: inhibit the activity

Compound: Cc1c([N+](=O)[O-])c(C)c([N+](=O)[O-])c(C(C)(C)C)c1[N+](=O)[O-] [Musk xylol]
- Activation of the OR5AN1 olfactory receptor [2]: specifically activated
- Span (HTRF ratio) [2]: 4217 HTRF ratio

Compound: C/C(C=O)=C\CCc1ccc(C(C)(C)C)cc1 [trans-5-(4-tert-butylphenyl)-2-methylpent-2-enal]
- Inhibition of the activity of the OR5AN1 olfactory receptor [1]: inhibit the activity

Compound: CCCCCCCCCCC/C=C/C=O [Compound 7, (E)-2-tetradecenal]
- Hit Type [5]: Agonist

Compound: SCc1ccco1 [furfuryl mercaptan]
- Inhibition of the activity of the OR5AN1 olfactory receptor [1]: inhibit the activity

Compound: CCCCC/C=C/CCC=O [(E)-dec-4-enal]
- Inhibition of the activity of the OR5AN1 olfactory receptor [1]: inhibit the activity

Compound: (2E)-7,8-dimethyl-2,7-nonadienal [Compound 1]
- Hit Type [5]: Agonist

Compound: (2E)-7-methyl-2,6-octadienal [Compound 3]
- Hit Type [5]: agonists

Compound: C[C@@H]1CCCCCCCCCCCCC(=O)C1 [Muscone]
- Activation of the OR5AN1 olfactory receptor ([2]; FIG. 1a): specifically activated
- Span (HTRF ratio) ([2]; efficacy, maximum span): 2979 HTRF ratio

Compound: O=CCCc1ccccc1 [3-phenylpropanal]
- Inhibition of the activity of the OR5AN1 olfactory receptor [1]: inhibit the activity

Compound: CC(C)=CCCC(C)C/C=C/C=O (racemic) [Compound 5, (+−)-(2E)-5,9-dimethyl-2,8-decadienal]
- Hit Type [5]: Agonist

Compound: CC(=O)c1c(C)c([N+](=O)[O-])c(C(C)(C)C)c([N+](=O)[O-])c1C [Musk ketone]
- Activation of the OR5AN1 olfactory receptor ([2]; FIG. 1a): specifically activated
- Span (HTRF ratio) ([2]; efficacy, maximum span): 4312 HTRF ratio

Compound: CCCCCOC(=O)CCCC [pentyl valerate]
- Inhibition of the activity of the OR5AN1 olfactory receptor [1]: inhibit the activity

Compound: CC1=CCCC2(CCCCC2)C1/C=C/C=O (racemic) [(+−)-(2E)-3-(2-methylspiro [5.5]undec-2-en-1-yl) acrylaldehyde]
- Inhibition of the activity of the OR5AN1 olfactory receptor [1]: inhibit the activity

Compound: C=CCCCCCCCCC(=O)O [undecenoic acid]
- OR5AN1 Musk response enhancement [6]: absence of enhancement

Compound: CC1C2CC(CC2C2CCCC(O)C2)C1(C)C (stereo not drawn) [sandenol]
- Inhibition of the activity of the OR5AN1 olfactory receptor [1]: inhibit the activity

Compound: CCCCCCCCC=O [nonanal, reference compound]
- OR5AN1 Musk response enhancement [6]: non-enhancing

Compound: CC/C(=C\CC1CC=C(C)C1(C)C)CO (stereo not drawn) [bacdanol]
- Inhibition of the activity of the OR5AN1 olfactory receptor [1]: inhibit the activity

Compound: CC(C)c1cccc(C(C)CC=O)c1 (stereo not drawn) [3-(3-propan-2-ylphenyl)butanal]
- Inhibition of the activity of the OR5AN1 olfactory receptor [1]: inhibit the activity

Compound: CC12C3CC(CC31)[C@]2(C)C/C=C/C=O (single isomer, unassigned; (+))
- Inhibition of the activity of the OR5AN1 olfactory receptor [1]: inhibit the activity

Compound: CC/C=C\CC/C=C/CO [(E)-2-(Z)-6-nonadien-1-ol]
- Inhibition of the activity of the OR5AN1 olfactory receptor [1]: inhibit the activity

Compound: CC/C=C\CCCCCO [(Z)-6-nonen-1-ol]
- Inhibition of the activity of the OR5AN1 olfactory receptor [1]: inhibit the activity

Compound: Trans-2,6,7-dimethyl-2,6-octadienal [Compound 9]
- Hit Type [5]: agonists

Compound: COC(=O)c1ccccc1OC [Compound 16]
- Hit Type [5]: Enhancement

Compound: CCCCCCC/C=C/C=O [Compound 11]
- Hit Type [5]: Enhancement

Compound: CCCCCC/C=C/C=O [nonylenic aldehyde]
- Allosteric modulation properties [4]: allosteric modulation properties similar to TDA

Compound: CCC/C=C/C=O [Compound 12]
- Hit Type [5]: Enhancement

Compound: CCCCCC/C=C/C=O [Compound 6]
- Hit Type [5]: Enhancement

Compound: CCCCCCCCCC/C=C/C(=O)O [(E)-2-tridecenoic acid]
- Inhibition of the activity of the OR5AN1 olfactory receptor [1]: inhibit the activity
